Measurements published in ChEMBL document CHEMBL1914451, “The cephalostatins. 21. Synthesis of bis-steroidal pyrazine rhamnosides (1)” (2011).
In brackets after ≈: the same amount, converted by molar mass. Activity calls are given as the source filed them. The calls are words filed in the database; no cut-off is given here.

What was measured:
P388 = experiment: Antiproliferative activity against mouse P388 cells; format: functional; settings: read-out: ED50 (the source's name)
BXPC-3 = experiment: Growth inhibition of human BxPC3 cells; format: functional
MCF7 = experiment: Growth inhibition of human MCF7 cells; format: functional
SF-268 = experiment: Growth inhibition of human SF268 cells; format: functional
NCI-H460 = experiment: Growth inhibition of human NCI-H460 cells; format: functional
KM-20L2 = experiment: Growth inhibition of human KM20L2 cells; format: functional
DU-145 = experiment: Growth inhibition of human DU145 cells; format: functional
Candida albicans = experiment: Antifungal activity against Candida albicans ATCC 90028 at 64 ug/ml by broth microdilution assay; format: functional, organism-based
[1] = test system: Stenotrophomonas maltophilia; experiment: Antibacterial activity against Stenotrophomonas maltophilia ATCC 13637 at 64 ug/ml by broth microdilution assay; format: functional, organism-based
Micrococcus luteus = experiment: Antibacterial activity against Micrococcus luteus Presque Isle 456 at 64 ug/ml by broth microdilution assay; format: functional, organism-based
Staphylococcus aureus = experiment: Antibacterial activity against Staphylococcus aureus ATCC 29213 at 64 ug/ml by broth microdilution assay; format: functional, organism-based
Escherichia coli = experiment: Antibacterial activity against Escherichia coli ATCC 25922 at 64 ug/ml by broth microdilution assay; format: functional, organism-based
Enterobacter cloacae = experiment: Antibacterial activity against Enterobacter cloacae ATCC 13047 at 64 ug/ml by broth microdilution assay; format: functional, organism-based
Enterococcus faecalis [2] = experiment: Antibacterial activity against Enterococcus faecalis ATCC 29212 at 64 ug/ml by broth microdilution assay; format: functional, organism-based
Streptococcus pneumoniae = experiment: Antibacterial activity against Streptococcus pneumoniae ATCC 6303 at 64 ug/ml by broth microdilution assay; format: functional, organism-based
Neisseria gonorrhoeae = experiment: Antibacterial activity against Neisseria gonorrhoeae ATCC 49226 at 64 ug/ml by broth microdilution assay; format: functional, organism-based
Cryptococcus neoformans = experiment: Antifungal activity against Cryptococcus neoformans ATCC 90112 at 64 ug/ml by broth microdilution assay; format: functional, organism-based
Enterococcus faecalis [3] = experiment: Antibacterial activity against Enterococcus faecalis ATCC 29212 by broth microdilution assay; format: functional

C[C@@H]1O[C@H]2OC(C)(OC/C=C3\CC[C@H]4[C@@H]5CCC6=CC(=O)CC[C@]6(C)[C@H]5[C@@H](O)C[C@]34C)O[C@@H]2[C@H](O)[C@H]1O (stereo partly specified)
EC50 (P388): 5.2 µg/mL (≈ 10 µM)

C=C[C@]1(C)CCC2=C1C[C@H](O)[C@H]1[C@H]2CC[C@H]2Cc3nc4c(nc3C[C@@]21C)C[C@@H]1CC[C@H]2C3=C(C[C@H](O)[C@@H]2[C@@]1(C)C4)[C@](C)(C=C)CC3
EC50 (P388): > 10 µg/mL

CC(=O)O[C@@H]1[C@@H](OC(C)=O)[C@H](C)O[C@@H](OC/C=C2\CC[C@H]3[C@@H]4CCC5=CC(=O)CC[C@]5(C)[C@H]4[C@@H](O)C[C@]23C)[C@@H]1OC(C)=O
EC50 (P388): > 10 µg/mL

CC(=O)OC/C=C1\CC[C@H]2[C@@H]3CCC4=CC(=O)CC[C@]4(C)[C@H]3[C@@H](O)C[C@]12C
EC50 (P388): > 100 µg/mL

CC(=O)O[C@@H]1[C@@H](OC(C)=O)[C@H](C)O[C@H](OC/C=C2\CC[C@H]3[C@@H]4CC[C@H]5Cc6nc7c(nc6C[C@]5(C)[C@H]4[C@@H](O)C[C@]23C)C[C@@H]2CC[C@@H]3[C@H]([C@@H](O)C[C@]4(C)/C(=C/CO[C@H]5O[C@@H](C)[C@H](OC(C)=O)[C@@H](OC(C)=O)[C@H]5OC(C)=O)CC[C@@H]34)[C@@]2(C)C7)[C@@H]1OC(C)=O
EC50 (P388): > 10 µg/mL

C[C@@H]1O[C@H](OC/C=C2\CC[C@H]3[C@@H]4CC[C@H]5Cc6nc7c(nc6C[C@]5(C)[C@H]4[C@@H](O)C[C@]23C)C[C@@H]2CC[C@@H]3[C@H]([C@@H](O)C[C@]4(C)/C(=C/CO[C@H]5O[C@@H](C)[C@H](O)[C@@H](O)[C@H]5O)CC[C@@H]34)[C@@]2(C)C7)[C@H](O)[C@H](O)[C@H]1O
EC50 (P388): > 10 µg/mL | GI50 (BXPC-3): 1.8 µg/mL (≈ 1.9 µM) | GI50 (MCF7): 1.8 µg/mL (≈ 1.9 µM) | GI50 (SF-268): 1.8 µg/mL (≈ 1.9 µM) | GI50 (NCI-H460): 1.8 µg/mL (≈ 1.9 µM) | GI50 (KM-20L2): 1.8 µg/mL (≈ 1.9 µM) | GI50 (DU-145): 2 µg/mL (≈ 2.11 µM)

CC(=O)OC/C=C1\CC[C@H]2[C@@H]3CC[C@H]4CC(=O)[C@H](N=[N+]=[N-])C[C@]4(C)[C@H]3[C@@H](O)C[C@]12C
EC50 (P388): 12 µg/mL (≈ 28.9 µM)

C[C@]12Cc3nc4c(nc3C[C@@H]1CC[C@@H]1[C@@H]2[C@@H](O)C[C@]2(C)/C(=C/CO)CC[C@@H]12)C[C@@]1(C)[C@@H](CC[C@@H]2[C@@H]1[C@@H](O)C[C@]1(C)/C(=C/CO)CC[C@@H]21)C4
EC50 (P388): 1.5 µg/mL (≈ 2.28 µM) | GI50 (BXPC-3): 1.3 µg/mL (≈ 1.98 µM) | GI50 (MCF7): 1.3 µg/mL (≈ 1.98 µM) | GI50 (SF-268): 1.7 µg/mL (≈ 2.59 µM) | GI50 (NCI-H460): 2.2 µg/mL (≈ 3.35 µM) | GI50 (KM-20L2): 1.7 µg/mL (≈ 2.59 µM) | GI50 (DU-145): 1.8 µg/mL (≈ 2.74 µM) | Activity (Candida albicans): inactive | Activity [1]: inactive | Activity (Micrococcus luteus): inactive | Activity (Staphylococcus aureus): inactive | Activity (Escherichia coli): inactive | Activity (Enterobacter cloacae): inactive | Activity (Enterococcus faecalis [2]): inactive | Activity (Streptococcus pneumoniae): inactive | Activity (Neisseria gonorrhoeae): inactive | Activity (Cryptococcus neoformans): inactive

CC(=O)O[C@@H]1[C@@H](OC(C)=O)[C@H](C)O[C@H]2OC(C)(OC/C=C3\CC[C@H]4[C@@H]5CC[C@H]6Cc7nc8c(nc7C[C@]6(C)[C@H]5[C@@H](O)C[C@]34C)C[C@@H]3CC[C@@H]4[C@H]([C@@H](O)C[C@]5(C)/C(=C/COC6(C)O[C@@H]7O[C@@H](C)[C@H](OC(C)=O)[C@@H](OC(C)=O)[C@H]7O6)CC[C@@H]45)[C@@]3(C)C8)O[C@@H]21 (stereo partly specified)
EC50 (P388): > 10 µg/mL

CC(=O)O[C@@H]1[C@@H](OC(C)=O)[C@H](C)O[C@@H](OC/C=C2\CC[C@H]3[C@@H]4CC[C@H]5Cc6nc7c(nc6C[C@]5(C)[C@H]4[C@@H](O)C[C@]23C)C[C@@H]2CC[C@@H]3[C@H]([C@@H](O)C[C@]4(C)/C(=C/CO[C@@H]5O[C@@H](C)[C@H](OC(C)=O)[C@@H](OC(C)=O)[C@H]5OC(C)=O)CC[C@@H]34)[C@@]2(C)C7)[C@@H]1OC(C)=O
EC50 (P388): > 10 µg/mL

C[C@@H]1O[C@H]2OC(C)(OC/C=C3\CC[C@H]4[C@@H]5CC[C@H]6Cc7nc8c(nc7C[C@]6(C)[C@H]5[C@@H](O)C[C@]34C)C[C@@H]3CC[C@@H]4[C@H]([C@@H](O)C[C@]5(C)/C(=C/COC6(C)O[C@@H]7O[C@@H](C)[C@H](O)[C@@H](O)[C@H]7O6)CC[C@@H]45)[C@@]3(C)C8)O[C@@H]2[C@H](O)[C@H]1O (stereo partly specified)
EC50 (P388): > 10 µg/mL | GI50 (BXPC-3): 2.1 µg/mL (≈ 2.03 µM) | GI50 (MCF7): 2.8 µg/mL (≈ 2.71 µM) | GI50 (SF-268): 3 µg/mL (≈ 2.9 µM) | GI50 (NCI-H460): 3.8 µg/mL (≈ 3.68 µM) | GI50 (KM-20L2): 3.3 µg/mL (≈ 3.19 µM) | GI50 (DU-145): 3 µg/mL (≈ 2.9 µM) | Activity (Candida albicans): inactive | Activity [1]: inactive | Activity (Micrococcus luteus): inactive | Activity (Staphylococcus aureus): inactive | Activity (Escherichia coli): inactive | Activity (Enterobacter cloacae): inactive | Activity (Enterococcus faecalis [2]): inactive | Activity (Streptococcus pneumoniae): inactive | Activity (Neisseria gonorrhoeae): inactive | Activity (Cryptococcus neoformans): inactive

C[C@@H]1O[C@@H](OC/C=C2\CC[C@H]3[C@@H]4CCC5=CC(=O)CC[C@]5(C)[C@H]4[C@@H](O)C[C@]23C)[C@H](O)[C@H](O)[C@H]1O
EC50 (P388): > 100 µg/mL

CC(=O)OC/C=C1\CC[C@H]2[C@@H]3CC[C@H]4Cc5nc6c(nc5C[C@]4(C)[C@H]3[C@@H](O)C[C@]12C)C[C@@H]1CC[C@@H]2[C@H]([C@@H](O)C[C@]3(C)/C(=C/COC(C)=O)CC[C@@H]23)[C@@]1(C)C6
EC50 (P388): 77.2 µg/mL (≈ 104 µM) | MIC (Enterococcus faecalis [3]): 32 µg/mL (≈ 43.2 µM)

CC(=O)O[C@@H]1[C@@H](OC(C)=O)[C@H](C)O[C@H]2OC(C)(OC/C=C3\CC[C@H]4[C@@H]5CCC6=CC(=O)CC[C@]6(C)[C@H]5[C@@H](O)C[C@]34C)O[C@@H]21 (stereo partly specified)
EC50 (P388): 9.5 µg/mL (≈ 15.8 µM)

CC(=O)OC/C=C1\CC[C@H]2[C@@H]3CC[C@H]4CC(=O)[C@H](Br)C[C@]4(C)[C@H]3[C@@H](O)C[C@]12C
EC50 (P388): 6.6 µg/mL (≈ 14.6 µM)

CC(=O)OC/C=C1\CC[C@H]2[C@@H]3CC[C@H]4CC(=O)CC[C@]4(C)[C@H]3[C@@H](O)C[C@]12C
EC50 (P388): 16.6 µg/mL (≈ 44.3 µM)

CC(=O)O[C@@H]1[C@@H](OC(C)=O)[C@H](C)O[C@@H](OC/C=C2\CC[C@H]3[C@@H]4CC[C@H]5Cc6nc7c(nc6C[C@]5(C)[C@H]4[C@@H](O)C[C@]23C)C[C@@H]2CC[C@@H]3[C@H]([C@@H](O)C[C@]4(C)/C(=C/CO[C@H]5O[C@@H](C)[C@H](OC(C)=O)[C@@H](OC(C)=O)[C@H]5OC(C)=O)CC[C@@H]34)[C@@]2(C)C7)[C@@H]1OC(C)=O
EC50 (P388): > 10 µg/mL
